Our source for the IC50 and Ki values is ChEMBL document CHEMBL3638922, “2-amino-3-sulphonyl-tetrahydro-pyrazolo[1,5-A]pyrido-pyrimidine antagonists of serotonin 5-HT6 receptors, methods for the production and use thereof” (2013).

The experiment deals with 5-hydroxytryptamine receptor 6 (Homo sapiens, UniProt P50406). The experiment is described as follows: Radioligand Binding Assay: The screening of the disclosed compounds for their potential ability to interact with serotonin 5-HT6 receptors was carried out b the method of radioligand binding.
5-hydroxytryptamine receptor 6, sequence (P50406 whole entry): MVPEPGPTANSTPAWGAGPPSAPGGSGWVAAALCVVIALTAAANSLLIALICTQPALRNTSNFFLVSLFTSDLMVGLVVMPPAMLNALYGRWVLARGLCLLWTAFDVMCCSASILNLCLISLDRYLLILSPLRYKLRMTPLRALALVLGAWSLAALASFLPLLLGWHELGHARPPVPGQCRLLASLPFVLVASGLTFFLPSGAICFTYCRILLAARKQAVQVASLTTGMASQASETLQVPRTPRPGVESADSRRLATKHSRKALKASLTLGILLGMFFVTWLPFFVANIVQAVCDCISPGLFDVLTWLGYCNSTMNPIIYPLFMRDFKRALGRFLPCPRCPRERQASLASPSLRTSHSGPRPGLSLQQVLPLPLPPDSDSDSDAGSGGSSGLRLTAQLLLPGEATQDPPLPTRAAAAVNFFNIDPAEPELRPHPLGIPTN

For `CNc1nn2c3c(cnc2c1S(=O)(=O)c1ccccc1)CN(C)CC3`, the half-inhibitory concentration (IC50) (as a rule, the midpoint of a concentration-inhibition curve) was 0.837 nM. Consider `CNc1nn2cc3c(nc2c1S(=O)(=O)c1ccccc1)CCN(C)C3`, for which the IC50 is 7.02 nM and affinity was put at a Ki of 3.26 nM.
